Reference: the supplement of paper PMC10307832

How the values were obtained:
Assay in all cases: relative viability (nuclei count vs DMSO), 5 days (fraction); higher = more cells survive
[1] = compound: C1=CC2=C(C=C(C(=C2N=C1)O)N=NC3=CC4=C(C=C3)C=C(C=C4)S(=O)(=O)O)S(=O)(=O)O + C[C@]1(O)C[C@@H](c2nc(-c3ccc4ccc(-c5ccccc5)nc4c3)c3c(N)nccn32)C1 [Linsitinib] (partner 1 µM)
In short: (§1)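 Relative viability divides the nuclei count in treated wells by that in vehicle wells. Lung cancer cell lines were seeded in 1536-well plates, dosed by pin tool the next day, and fixed and stained after 5 days in one step with final 0.05% Triton X-100, 1% formaldehyde and 1 ug/ml Hoechst. Dosing was a single drug or a fixed anchor-drug dose plus five library-drug doses (not always all listed) in √10 steps, and values are medians of duplicate plates imaged at 4×.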

AT-7519 + Palbociclib = compound: O=C(NC1CCNCC1)c1n[nH]cc1NC(=O)c1c(Cl)cccc1Cl [AT-7519] + CC(=O)c1c(C)c2cnc(Nc3ccc(N4CCNCC4)cn3)nc2n(C2CCCC2)c1=O [Palbociclib] (partner 0.5 µM)
In short: as §1

AT-7519 + Decitabine = compound: O=C(NC1CCNCC1)c1n[nH]cc1NC(=O)c1c(Cl)cccc1Cl [AT-7519] + Nc1ncn([C@H]2C[C@H](O)[C@@H](CO)O2)c(=O)n1 [Decitabine] (partner 2 µM)
In short: as §1

[2] = compound: C1=CC2=C(C=C(C(=C2N=C1)O)N=NC3=CC4=C(C=C3)C=C(C=C4)S(=O)(=O)O)S(=O)(=O)O + C[C@@H](Oc1cc(-c2cnn(C3CCNCC3)c2)cnc1N)c1c(Cl)ccc(F)c1Cl [Crizotinib] (partner 1 µM)
In short: as §1

Row | Cell Line | relative viability ([1]; first compound 0.08 µM) | relative viability ([1]; first compound 0.253 µM) | relative viability ([1]; first compound 0.8 µM) | relative viability ([1]; first compound 2.53 µM) | relative viability ([1]; first compound 8 µM) | relative viability (AT-7519 + Palbociclib; first compound 0.01 µM) | relative viability (AT-7519 + Palbociclib; first compound 0.03162 µM) | relative viability (AT-7519 + Palbociclib; first compound 0.3162 µM) | relative viability (AT-7519 + Palbociclib; first compound 1 µM) | relative viability (AT-7519 + Decitabine; first compound 0.01 µM) | relative viability (AT-7519 + Decitabine; first compound 0.03162 µM) | relative viability (AT-7519 + Decitabine; first compound 0.3162 µM) | relative viability (AT-7519 + Decitabine; first compound 1 µM) | relative viability ([2]; first compound 0.08 µM) | relative viability ([2]; first compound 0.253 µM) | relative viability ([2]; first compound 0.8 µM) | relative viability ([2]; first compound 2.53 µM) | relative viability ([2]; first compound 8 µM)
1 | NCI-H1915 | 1.06 | 1.14 | 1.13 | 1.08 | 1.14 | 0.592 | 0.509 | 0.608 | 0.39 | 0.25 | 0.248 | 0.288 | 0.235 | 0.973 | 0.864 | 0.893 | 0.912 | 0.925
2 | NCI-H1944 | 1.21 | 1.15 | 1.24 | 1.17 | 1.25 | 0.314 | 0.322 | 0.292 | 0.268 | 0.443 | 0.415 | 0.434 | 0.344 | 1.24 | 1.1 | 1.09 | 1.12 | 0.846
3 | NCI-H1975 | 1.02 | 0.913 | 0.92 | 0.918 | 0.908 | 0.51 | 0.599 | 0.362 | 0.176 | 0.398 | 0.371 | 0.252 | 0.271 | 1.1 | 0.961 | 1.01 | 0.994 | 0.929
4 | NCI-H1993 | 0.757 | 0.694 | 0.653 | 0.702 | 0.717 | 0.759 | 0.638 | 0.612 | 0.229 | 0.671 | 0.597 | 0.543 | 0.391 | 0.866 | 0.904 | 0.864 | 0.797 | 0.896
5 | NCI-H2009 | 1.21 | 1.07 | 1.21 | 1.2 | 1.19 | 0.209 | 0.2 | 0.19 | 0.18 | 0.395 | 0.406 | 0.446 | 0.309 | 1.14 | 1.04 | 1.09 | 1.07 | 1.02
6 | NCI-H2023 | 0.675 | 0.593 | 0.69 | 0.675 | 0.653 | 0.393 | 0.401 | 0.243 | 0.0824 | 0.201 | 0.234 | 0.209 | 0.125 | 0.831 | 0.702 | 0.654 | 0.726 | 0.483
7 | NCI-H2085 | 1.06 | 0.927 | 0.978 | 0.821 | 0.892 | 0.454 | 0.503 | 0.515 | 0.608 | 0.621 | 0.561 | 0.532 | 0.508 | 0.956 | 0.891 | 0.855 | 0.85 | 0.725
8 | NCI-H2087 | 1 | 1.12 | 0.82 | 0.964 | 1.15 | 0.226 | 0.224 | 0.186 | 0.116 | 0.24 | 0.257 | 0.262 | 0.0751 | 1.04 | 0.952 | 0.957 | 0.694 | 0.833
9 | NCI-H2126 | 0.72 | 0.688 | 0.718 | 0.752 | 0.731 | 0.348 | 0.352 | 0.358 | 0.341 | 0.524 | 0.568 | 0.552 | 0.495 | 1.09 | 0.937 | 0.993 | 1.03 | 1.01
10 | NCI-H2347 | 1.01 | 0.894 | 0.881 | 1.03 | 1.03 | 0.397 | 0.44 | 0.469 | 0.374 | 0.561 | 0.59 | 0.571 | 0.526 | 0.691 | 0.674 | 0.651 | 0.768 | 0.636
11 | NCI-H2405 | 0.909 | 0.873 | 0.943 | 1.04 | 0.948 | 0.534 | 0.523 | 0.532 | 0.381 | 0.741 | 0.744 | 0.711 | 0.486 | 0.927 | 0.806 | 0.808 | 0.847 | 0.869
12 | NCI-H3122 | 0.998 | 0.962 | 0.969 | 1.01 | 0.96 | 0.212 | 0.506 | 0.221 | 0.145 | 0.508 | 0.484 | 0.511 | 0.193 | 0.285 | 0.29 | 0.275 | 0.271 | 0.274
13 | PC-3 [JPC-3] | 0.998 | 0.93 | 0.94 | 0.965 | 0.97 | 0.591 | 0.548 | 0.508 | 0.575 | 0.802 | 0.815 | 0.726 | 0.756 | 1.07 | 1.02 | 0.999 | 0.978 | 0.966
14 | PC-14 | 1.03 | 0.936 | 0.962 | 0.948 | 1.1 | 0.433 | 0.502 | 0.338 | 0.0604 | 0.264 | 0.205 | 0.189 | 0.0859 | 0.944 | 0.833 | 0.907 | 0.892 | 0.941
15 | RERF-LC-KJ | 0.945 | 0.954 | 0.888 | 0.979 | 0.87 | 1.09 | 1.13 | 0.86 | 0.55 | 0.738 | 0.701 | 0.452 | 0.229 | 0.828 | 0.797 | 0.782 | 0.872 | 0.869
16 | SK-LU-1 | 1.38 | 1.13 | 1.14 | 1.14 | 1.03 | 0.38 | 0.361 | 0.361 | 0.311 | 0.602 | 0.653 | 0.569 | 0.501 | 1 | 0.952 | 0.854 | 0.923 | 0.93
17 | SK-MES-1 | 1.17 | 1.01 | 1.05 | 1.04 | 1.06 | 0.304 | 0.31 | 0.295 | 0.204 | 0.349 | 0.348 | 0.361 | 0.35 | 0.96 | 0.886 | 0.963 | 1 | 0.948
